Literature values as cited in patent US20030236237A1, “Method of treating symptoms of hormonal variation, including hot flashes, using tachykinin receptor antagonist” (priority 2000, published 2003).
Where two headings read alike, the source gives them in different places.

Key:
[1] = test system: hot flashes; details: low dose oral; men and women; short term study
[2] = test system: hot flashes; details: transdermal; tamoxifen-treated women
[3] = test system: neurokinin B gene expression in the hypothalamic arcuate nucleus (ArN); details: ovariectomized rat treated with estrogen
[4] = test system: neurokinin B gene expression in the hypothalamic arcuate nucleus (ArN); details: ovariectomized primate treated with estrogen
[5] = test system: hot flash; details: humans

Molecule: CC(=O)O[C@]1(C(C)=O)CC[C@H]2[C@@H]3C=C(C)C4=CC(=O)CC[C@]4(C)[C@H]3CC[C@@]21C [megestrol acetate]
- frequency of hot flashes [1]: shown to reduce the frequency of hot flashes

Molecule: Clc1cccc(Cl)c1N=C1NCCN1 [clonidine]
- frequency and severity of hot flashes [2]: only a moderate effect

Molecule: estrogen
- ArN changes (increased NKB gene expression) [3]: completely prevents
- ArN changes (increased NKB gene expression) [4]: completely prevents

Molecule: substance P [substance-P]
- clinical hot flash after systemic injection [5]: results in a clinical hot flash
